# Results published in paper doi:10.1101/2024.01.14.575554v1 (biorxiv, 2024).
# Target: T1, Hsp60β (Sulfolobus acidocaldarius, UniProt Q9V2T4)
# T1 sequence (Q9V2T4 1-553): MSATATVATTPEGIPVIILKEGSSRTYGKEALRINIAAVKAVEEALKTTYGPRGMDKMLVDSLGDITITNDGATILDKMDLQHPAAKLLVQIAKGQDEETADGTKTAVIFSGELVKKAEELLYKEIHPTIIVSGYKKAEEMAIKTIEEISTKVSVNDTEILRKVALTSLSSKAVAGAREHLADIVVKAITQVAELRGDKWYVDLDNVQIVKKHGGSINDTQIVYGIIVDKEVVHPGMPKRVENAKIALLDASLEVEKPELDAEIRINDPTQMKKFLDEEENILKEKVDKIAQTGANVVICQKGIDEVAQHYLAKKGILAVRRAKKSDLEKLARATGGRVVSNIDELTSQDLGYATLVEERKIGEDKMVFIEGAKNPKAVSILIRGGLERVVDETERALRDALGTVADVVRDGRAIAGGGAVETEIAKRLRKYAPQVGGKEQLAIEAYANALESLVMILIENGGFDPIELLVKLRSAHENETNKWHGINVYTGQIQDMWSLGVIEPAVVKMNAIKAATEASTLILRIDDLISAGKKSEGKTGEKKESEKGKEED
# Assay: FRET titration, tryptophan donor to MANT acceptor
# Assay type: binding
structure (smiles),measurement,value
"CNc1ccccc1C(=O)O[C@H]1[C@@H](O)[C@H](n2cnc3c(N)ncnc32)O[C@@H]1CO[P@@](=O)(O)O[P@](=O)(O)OP(=O)(O)O [MANT-ATP, 2’/3’-(N-methyl-anthraniloyl)-adenosine-5’-triphosphate]",Kd,77.2 ± 3.8 µM
